Values of other authors as cited in PMC8597174 (Clinical Pharmacology in Drug Development, 2021).

salmon calcitonin
Effect of dosing after meal intake on maximum concentration and AUC: significant reduction in maximum concentration and AUC
